Assay results: ChEMBL document CHEMBL1212812, “Multi-target spectral moment QSAR versus ANN for antiparasitic drugs against different parasite species” (Bioorg Med Chem, 2010)

Key:
Type in all cases: functional, organism-based
Trypanosoma cruzi = assay: Antimicrobial activity against Trypanosoma cruzi; settings: Trypanosoma cruzi
Plasmodium falciparum = assay: Antimicrobial activity against Plasmodium falciparum
Leishmania infantum = assay: Antimicrobial activity against Leishmania infantum
Trichomonas vaginalis = assay: Antimicrobial activity against Trichomonas vaginalis
[1] = test system: Trypanosoma brucei brucei; assay: Antimicrobial activity against Trypanosoma brucei brucei
[2] = test system: Trypanosoma brucei rhodesiense; assay: Antimicrobial activity against Trypanosoma brucei rhodesiense
Toxoplasma gondii = assay: Antimicrobial activity against Toxoplasma gondii; settings: Toxoplasma gondii
Leishmania donovani = assay: Antimicrobial activity against Leishmania donovani

Compound	IC50 (Leishmania infantum) [µM]	IC50 (Trichomonas vaginalis) [µM]	IC50 [1] [µM]	other results
COc1ccc2c(c1)cc1c3ccccc3nc-1n2C				IC50 (Trypanosoma cruzi): 2 µM; IC50 (Plasmodium falciparum): 5 µM
Nc1ccc2nc(Nc3cccc(O)c3)sc2c1	19	200		
CC(C)(C)OC(=O)NC(=N)c1ccc(NC(=O)Cn2cnc([N+](=O)[O-])c2)cc1			200	
CN(C)c1ccc(Nc2nc3ccc([N+](=O)[O-])cc3s2)cc1	25	166		
COc1cc(NS(C)(=O)=O)ccc1Nc1nc2ccc([N+](=O)[O-])cc2s1	18	83		
CN(C)c1nc2ccc([N+](=O)[O-])cc2s1	4	200		
CCN(CC)c1nc2ccc([N+](=O)[O-])cc2s1	99	200		
O=[N+]([O-])c1ccc2nc(N3CCCCC3)sc2c1	6	189		
N=C(NCCCN(CCNC(=N)NC1CCCCC1)C(=N)NC1CCCCC1)NC1CCCCC1				IC50 [2]: 21 µM
C1CN(N2CCNCC2)CCN1				IC50 [2]: 17 µM
CCN(CC)CCCNc1nc2ccc([N+](=O)[O-])cc2s1	4	49		
CCCNc1nc2ccc([N+](=O)[O-])cc2s1	1	200		
Nc1ccc2nc(Cl)sc2c1	54	200		
CN(C)c1ccc(Nc2nc3ccc(N)cc3s2)cc1	73	133		
CC(C)(C)CC(=O)N1CCN(N2CCN(C(=O)CC(C)(C)C)CC2)CC1				IC50 [2]: 5 µM
C1CNC(N2CCN(N3CCN(C4=NCCN4)CC3)CC2)=N1				IC50 [2]: 28 µM
CC(C)(C)OC(=O)NCCNC(=S)N1CCN(N2CCN(C(=S)NCCNC(=O)OC(C)(C)C)CC2)CC1				IC50 [2]: 14 µM
O=C(CCN1CCCN(C(=O)OCc2ccccc2)C1)OCc1ccccc1				IC50 [2]: 3 µM
CC(=O)Nc1nc2ccc(N)cc2s1	121	200		
NCCCNCCN				IC50 [2]: 49 µM
Nc1ccc2nc(N3CCCCC3)sc2c1	10	214		
CCN(CC)CCCNc1nc2ccc(N)cc2s1	65	200		
Nc1ccc2nc(Nc3ccccc3)sc2c1	63	208		
O=C(O)c1ccccc1Nc1ccc2nc(Cl)sc2c1	5	17		

Compound	IC50 (Leishmania infantum) [µM]	IC50 (Trichomonas vaginalis) [µM]	IC50 [1] [µM]	other results
O=C(O)c1ccccc1Nc1ccc2nc(NCCO)sc2c1	4	158		
COc1cc(NS(C)(=O)=O)ccc1Nc1nc2ccc(Nc3ccccc3C(=O)O)cc2s1	13	22		
O=C(O)c1ccccc1Nc1ccc2nc(Nc3cccc(O)c3)sc2c1	237	134		
CC(=O)Nc1nc2ccc(Nc3ccccc3C(=O)O)cc2s1	18	18		
Nc1nc2ccc(Nc3ccccc3C(=O)O)cc2s1	2	125		
CCN(CC)c1nc2ccc(Nc3ccccc3C(=O)O)cc2s1	33	3		
O=C(O)c1ccccc1Nc1ccc2nc(N3CCCCC3)sc2c1	15	83		
COc1ccc2cc3c4ccccc4nc-3n(C)c2c1				IC50 (Trypanosoma cruzi): 1 µM; IC50 (Plasmodium falciparum): 2 µM
N=C(N)c1ccc(NC(=O)Cn2cnc([N+](=O)[O-])c2)cc1			200	IC50 [2]: 80 µM
O=C(O)COCCOCCOc1cc(Cl)c(Cl)cc1Cl				IC50 (Toxoplasma gondii): 1 µM
c1ccc2[nH]c(Sc3cccc4ccccc34)cc2c1				IC50 (Toxoplasma gondii): 3 µM
O=[N+]([O-])c1ccc(Sc2cc3ccccc3[nH]2)cc1				IC50 (Toxoplasma gondii): 14 µM
CNc1nc(NC)nc(NN)n1			200	
Nc1nc(N)nc(N/N=C\c2ccc([N+](=O)[O-])s2)n1			1	
Nc1nc(N)nc(N/N=C\c2ccco2)n1			29	IC50 [2]: 13 µM
Nc1nc(N)nc(N/N=C\c2cccs2)n1			89	IC50 [2]: 10 µM
CNc1nc(NC)nc(N/N=C\c2ccc([N+](=O)[O-])o2)n1			15	
CSc1c(Sc2ccc([N+](=O)[O-])cc2)[nH]c2ccccc12				IC50 (Toxoplasma gondii): 28 µM
CCCN(CCC)c1ccc(S(=O)(=O)Nc2ccccc2)cc1[N+](=O)[O-]			20	IC50 (Leishmania donovani): 43 µM
CCCN(CCC)c1ccc(S(=O)(=O)N([N+](=O)[O-])[N+](=O)[O-])cc1			12	IC50 (Leishmania donovani): 65 µM
NNc1nc(N)nc(N)n1			200	
N/N=C/c1ccc([N+](=O)[O-])o1			14	IC50 [2]: 2 µM
CCCN(CCC)c1c([N+](=O)[O-])cc(S(=O)(=O)N(C)C)cc1[N+](=O)[O-]			6	IC50 (Leishmania donovani): 100 µM
CCCN(CCC)c1c([N+](=O)[O-])cc(S(=O)(=O)NC2CC2)cc1[N+](=O)[O-]			3	

Compound	IC50 (Leishmania infantum) [µM]	IC50 (Trichomonas vaginalis) [µM]	IC50 [1] [µM]	other results
CCCN(CCC)c1c([N+](=O)[O-])cc(S(=O)(=O)Nc2cccc(OC)c2)cc1[N+](=O)[O-]			1	IC50 (Leishmania donovani): 8 µM
O=C(NCCCN1CCN(C(=O)OCc2ccccc2)C1)OCc1ccccc1				IC50 [2]: 1 µM
CN(CCCNC1=NCCN1)CCNC1=NCCN1				IC50 [2]: 2 µM
Cc1ccc2c(c1)cc1c3ccccc3nc-1n2C				IC50 (Trypanosoma cruzi): 4 µM; IC50 (Plasmodium falciparum): 2 µM
CCCN(CCC)c1c([N+](=O)[O-])cc(S(=O)(=O)Nc2ccc(Cl)c(Cl)c2)cc1[N+](=O)[O-]			8	
CCCN(CCC)c1c([N+](=O)[O-])cc(S(=O)(=O)N2CCOCC2)cc1[N+](=O)[O-]			100	IC50 (Leishmania donovani): 100 µM
CCCN(CCC)c1c([N+](=O)[O-])cc(S(=O)(=O)Nc2cccc(C)c2)cc1[N+](=O)[O-]			2	
CCCN(CCC)c1c([N+](=O)[O-])cc(S(=O)(=O)Nc2cccc(Cl)c2)cc1[N+](=O)[O-]			2	IC50 (Leishmania donovani): 6 µM
CCCN(CCC)c1c([N+](=O)[O-])cc(S(=O)(=O)NC)cc1[N+](=O)[O-]			5	IC50 (Leishmania donovani): 100 µM
CCCN(CCC)c1c([N+](=O)[O-])cc(S(=O)(=O)NCC)cc1[N+](=O)[O-]			5	IC50 (Leishmania donovani): 100 µM
CCCN(CCC)c1c([N+](=O)[O-])cc(S(=O)(=O)NC(C)C)cc1[N+](=O)[O-]			4	IC50 (Leishmania donovani): 100 µM
CCCCCCN(CCCCCC)S(=O)(=O)c1cc([N+](=O)[O-])c(N(CCC)CCC)c([N+](=O)[O-])c1			50	IC50 (Leishmania donovani): 100 µM
CN(CCCNC(=O)OCc1ccccc1)CCNC(=O)OCc1ccccc1				IC50 [2]: 21 µM
N=C(N)NCCCNCCNC(=N)N				IC50 [2]: 20 µM
O=C(NCCCN(CCO)CCNC(=O)OCc1ccccc1)OCc1ccccc1				IC50 [2]: 4 µM
CC(=O)OCCN(CCCNC(=O)OCc1ccccc1)CCNC(=O)OCc1ccccc1				IC50 [2]: 30 µM
CN(CCN)CCCN				IC50 [2]: 69 µM
NCCCN(CCN)CCc1c[nH]c2ccccc12				IC50 [2]: 16 µM
O=C(NCCCN(CCNC(=O)OCc1ccccc1)CCc1c[nH]c2ccccc12)OCc1ccccc1				IC50 [2]: 84 µM
C(CNCCNC1=NCCN1)CNC1=NCCN1				IC50 [2]: 11 µM
C[C@@H]1[C@H](O)[C@@H](C)/C=C/C=C/C=C/C=C/C=C/C=C/C=C/[C@H](O[C@@H]2O[C@H](C)[C@@H](O)[C@H](N)[C@@H]2O)C[C@@H]2O[C@](O)(C[C@@H](O)C[C@@H](O)[C@H](O)CC[C@@H](O)C[C@@H](O)CC(=O)O[C@H]1C)C[C@H](O)[C@H]2C(=O)O [AMPHOTERICIN B]		12		
CC(=O)N1CCN(c2ccc(OCC3COC(Cn4ccnc4)(c4ccc(Cl)cc4Cl)O3)cc2)CC1 (stereo not drawn) [KETOCONAZOLE]				IC50 (Trypanosoma cruzi): 3 µM; IC50 (Leishmania donovani): 2 µM
CC1CS(=O)(=O)CCN1/N=C/c1ccc([N+](=O)[O-])o1 (stereo not drawn) [NIFURTIMOX]			6	IC50 [2]: 2 µM
O=C(CCCCc1ccc2c(c1)OCO2)N1CCCCC1 [TETRAHYDROPIPERINE]				IC50 (Trypanosoma cruzi): 19 µM

Now from value to compound, other results behind:

IC50 (Leishmania infantum) [µM]	IC50 (Trichomonas vaginalis) [µM]	IC50 [1] [µM]	Compound	other results
48	2		O=[N+]([O-])c1ccc2nc(Cl)sc2c1	
104	200		O=[N+]([O-])c1ccc2nc(NCCO)sc2c1	
15	174		O=[N+]([O-])c1ccc2nc(Nc3cccc(O)c3)sc2c1	
1	200		CC(=O)Nc1nc2ccc([N+](=O)[O-])cc2s1	
36	186		O=[N+]([O-])c1ccc2nc(Nc3ccccc3)sc2c1	
3	200		Nc1ccc2nc(NCCO)sc2c1	
10	156		COc1cc(NS(C)(=O)=O)ccc1Nc1nc2ccc(N)cc2s1	
2	200		CN(C)c1nc2ccc(N)cc2s1	
23	200		CCN(CC)c1nc2ccc(N)cc2s1	
98	200		CCCNc1nc2ccc(N)cc2s1	
68	26		CN(C)c1ccc(Nc2nc3ccc(Nc4ccccc4C(=O)O)cc3s2)cc1	
80	102		CN(C)c1nc2ccc(Nc3ccccc3C(=O)O)cc2s1	
2	134		CCN(CC)CCCNc1nc2ccc(Nc3ccccc3C(=O)O)cc2s1	
39	76		CCCNc1nc2ccc(Nc3ccccc3C(=O)O)cc2s1	
30	41		O=C(O)c1ccccc1Nc1ccc2nc(Nc3ccccc3)sc2c1	
		200	N=C(N)c1ccc(NC(=O)Cn2ccnc2[N+](=O)[O-])cc1	IC50 [2]: 6 µM
		119	CC(C)(C)OC(=O)NC(=N)c1ccc(NC(=O)Cn2ccnc2[N+](=O)[O-])cc1	
		9	CCCNS(=O)(=O)c1cc([N+](=O)[O-])c(N(CCC)CCC)c([N+](=O)[O-])c1	
		8	CCCN(CCC)c1c([N+](=O)[O-])cc(S(=O)(=O)N(CC)CC)cc1[N+](=O)[O-]	
51	200		Nc1nc2ccc([N+](=O)[O-])cc2s1	
151	200		Nc1ccc2nc(N)sc2c1	
		7	CCCN(CCC)c1c([N+](=O)[O-])cc(S(=O)(=O)N2CCCC2)cc1[N+](=O)[O-]	
		3	CCN(CC)c1c([N+](=O)[O-])cc(S(=O)(=O)Nc2ccccc2)cc1[N+](=O)[O-]	
		9	CCCN(CCC)c1c([N+](=O)[O-])cc(S(=O)(=O)Nc2ccccn2)cc1[N+](=O)[O-]	
	3		Cc1ncc([N+](=O)[O-])n1CCO [METRONIDAZOLE]	
		1	O=[N+]([O-])c1ccc(/C=N/O)o1 [NIFUROXIME]	IC50 [2]: 1 µM
